We go through two compounds from patent publication US20110160053A1, “Synergistic Combination of Prothioconazole and Metominostrobin” (Bayer CropScience AG, priority 2009, published 2011).

Molecules are shown by their SMILES.

Format in all cases: in vivo
The test system of test [1] is Blumeria graminis fsp. tritici. Description: Blumeria test (wheat) / preventive. Conditions: rate of application 62.5 ppm, evaluated 7 days after inoculation. The method, then: [table] To produce a suitable preparation of active compound, 1 part by weight of active compound or active compound combination is mixed with the stated amounts of solvent and emulsifier, and the concentrate is diluted with water to the desired concentration. To test for preventive activity, young plants are sprayed with the preparation of active compound or active compound combination at the stated rate of application. After the spray coating has been dried, the plants are dusted with spores of Blumeria graminis fsp. tritici. The plants are placed in the greenhouse at a temperature of approximately 18° C. and a relative atmospheric humidity of approximately 80% to promote the development of mildew pustules. The test is evaluated 7 days after the inoculation. 0% means an efficacy which corresponds to that of the control, while an efficacy of 100% means that no disease is observed.

The test system of the next test is Sphaerotheca fuliginea. Description: Sphaerotheca test (cucumbers) / protective. The settings on record: rate of application 2 ppm, evaluated 7 days after inoculation. On the procedure: [table] To produce a suitable preparation of active compound, 1 part by weight of active compound is mixed with the stated amounts of solvent and emulsifier, and the concentrate is diluted with water to the desired concentration. To test for protect activity, young plants are sprayed with the preparation of active compound at the stated rate of application. After the spray coating has dried on, the plants are inoculated with an aqueous spore suspension of Sphaerotheca fuliginea. The plants are then placed in a greenhouse at approximately 23° C. and a relative atmospheric humidity of approximately 70%. The test is evaluated 7 days after the inoculation. 0% means an efficacy which corresponds to that of the control, while an efficacy of 100% means that no disease is observed.

A further test has as its system Phakopsora pachyrhizi. Description: Phakopsora test (soybeans) / protective. The settings on record: evaluated 11 days after inoculation. The method, then: To produce a suitable preparation of active compound, 1 part by weight of active compound or active compound combination is mixed with the stated amounts of solvent and emulsifier, and the concentrate is diluted with water to the desired concentration.
To test for protective activity, young plants are sprayed with the preparation of active compound or active compound combination at the stated rate of application. After the spray coating has dried on, the plants are placed in a greenhouse at a temperature of approximately 23° C. and a relative atmospheric humidity of approximately 70%.
1 day after spraying, the plants are inoculated with an aqueous spore suspension of the causal agent of soybean rust (Phakopsora pachyrhizi). The plants are then placed in a greenhouse at approximately 20° C. and a relative atmospheric humidity of approximately 80%. The test is evaluated 11 days after the inoculation. 0% means an efficacy which corresponds to that of the control, while an efficacy of 100% means that no disease is observed.

In the case of `CNC(=O)/C(=N/OC)c1ccccc1Oc1ccccc1` [Metominostrobin, (E)-α-(methoxyimino)-N-methyl-2-phenoxy-benzeneacetamide], the Efficacy in % amounted to 50% in test [1], 0% in the test on Sphaerotheca fuliginea, 0% with Phakopsora pachyrhizi (rate of application 2.5 ppm) and 20% in the test with Phakopsora pachyrhizi (rate of application 5 ppm).
In the case of `OC(Cc1ccccc1Cl)(Cn1nc[nH]c1=S)C1(Cl)CC1` (centres unmarked) [Prothioconazole, 2-[2-(1-chlorocyclopropyl)-3-(2-chlorophenyl)-2-hydroxypropyl]-2,4-dihydro-[1,2,4]-triazole-3-thione], the Efficacy in % worked out at 13% in test [1], 65% in the test on Sphaerotheca fuliginea, 20% with Phakopsora pachyrhizi (rate of application 0.1 ppm) and 50% in the test on Phakopsora pachyrhizi (rate of application 0.5 ppm).
